Experimental data reported in patent publication US20090023794A1, “Use of Sumoylation Inhibitors for the Treatment of Neurodegenerative Disease” (Caritas St. Elizabeth Medical Center of Boston, Inc., priority 2005, published 2009).

Experiments:
[1] = system: tyrosine hydroxylase expression in CHP-212 cells; assay: Restoration of tyrosine hydroxylase expression by HDAC inhibitors in CHP-212 cells transfected with DJ-1 siRNA (western blot); type: cell-based, human; settings: for reversal of tyrosine hydroxylase inhibition caused by DJ-1 inactivation (in words): CHP-212 cells transfected with DJ-1 siRNA/RNAi
From the text: Various acetylated histone species from CHP-212 cells transfected with control or DJ-1 RNAi for 4 days were immunoprecipitated with specific antibodies, and amplified with primers specifically for the human tyrosine hydroxylase promoter using semi-quantitative PCR. Reactions were stopped at indicated PCR cycles for gel analysis. Input: 0.5% of input DNA before IP. The inhibition of endogenous tyrosine hydroxylase and DJ-1 by the DJ-1-specific siRNA for the ChIP assays was confirmed by Western blots. […] after the transfection of control (CTR) or DJ-1 RNAi constructs, CHP-212 cells were treated with increasing amount of sodium butyrate for additional 88 hours before harvesting, with 2 changes of fresh medium containing sodium butyrate during the course of the experiment. […] The protein levels of TH, DJ-1 and β-actin were determined by western blotting.
To validate the role of histone acetylation in DJ-1-mediated regulation of the human tyrosine hydroxylase promoter, CHP-212 cells were transfected with control or DJ-1-specific siRNA. ChIP assays were performed with antibodies that specifically recognize acetylated histones, and the human tyrosine hydroxylase promoter sequences were amplified using semi-quantitative PCR. Consistent with the concurrent inhibition of the tyrosine hydroxylase protein expression, DJ-1 inactivation caused a decrease in the amount of tyrosine hydroxylase promoter-associated acetylated histones, indicating transcriptional silencing (FIG. 6A). Since DJ-1 acted as a transcriptional co-activator eventually promoting histone acetylation, it was likely that chemical inhibitors of HDAC would reverse the effects of DJ-1 inactivation. Therefore, CHP-212 cells were pre-transfected with control or DJ-1-specific siRNA, and the cells were treated with increasing amounts of the HDAC inhibitor sodium butyrate. Sodium butyrate restored tyrosine hydroxylase expression (to 88% of the levels in the control at 0.2 mM) even in the presence of DJ-1 siRNA (FIG. 6B). […]

histone acetylation = assay: Histone acetylation in CHP-212 cells by western blotting; type: cell-based, human; settings: data not shown

| Compound | tyrosine hydroxylase expression restored, relative to the levels in the control ([1]; 0.2 mM, CHP-212 cells in the presence of DJ-1 siRNA, western blot) | reversal of tyrosine hydroxylase inhibition caused by DJ-1 inactivation (in words) [1] | histone acetylation (in words) (histone acetylation) |
| --- | --- | --- | --- |
| CCCC(=O)[O-].[Na+] [sodium butyrate] | 88 % of the levels in the control | restoration of tyrosine hydroxylase expression | increased histone acetylation |
| CC(/C=C/C(=O)NO)=C\[C@@H](C)C(=O)c1ccc(N(C)C)cc1 [trichostatin A] |  | similarly reversed the tyrosine hydroxylase inhibition |  |
